Experimental data published in patent US20240262801A1, “COMPOUNDS HAVING 5-(2-FLUORO-6-HYDROXYPHENYL)-1,2,5-THIADIAZOLIDIN-3-ONE 1,1-DIOXIDE AS INHIBITORS OF PROTEIN KINASE PHOSPHATASE ENZYMES” (Ness Therapeutics, Inc., priority 2021, published 2024).
Like-named read-outs stand apart in the source and are kept apart here.

How the values were obtained:
GST-tagged PTPN2 protein = target: T1, GST-tagged PTPN2 protein (Homo sapiens, UniProt P17706); test: Primary assay of PTPN2 enzymatic activity inhibition (DiFMUP fluorescence); format: biochemical; settings: DiFMUP substrate 2 μM, 60 min at RT
T1 construct: purchased ActiveMotif 31592
T1 sequence (P17706 with tags, fused parts or gaps): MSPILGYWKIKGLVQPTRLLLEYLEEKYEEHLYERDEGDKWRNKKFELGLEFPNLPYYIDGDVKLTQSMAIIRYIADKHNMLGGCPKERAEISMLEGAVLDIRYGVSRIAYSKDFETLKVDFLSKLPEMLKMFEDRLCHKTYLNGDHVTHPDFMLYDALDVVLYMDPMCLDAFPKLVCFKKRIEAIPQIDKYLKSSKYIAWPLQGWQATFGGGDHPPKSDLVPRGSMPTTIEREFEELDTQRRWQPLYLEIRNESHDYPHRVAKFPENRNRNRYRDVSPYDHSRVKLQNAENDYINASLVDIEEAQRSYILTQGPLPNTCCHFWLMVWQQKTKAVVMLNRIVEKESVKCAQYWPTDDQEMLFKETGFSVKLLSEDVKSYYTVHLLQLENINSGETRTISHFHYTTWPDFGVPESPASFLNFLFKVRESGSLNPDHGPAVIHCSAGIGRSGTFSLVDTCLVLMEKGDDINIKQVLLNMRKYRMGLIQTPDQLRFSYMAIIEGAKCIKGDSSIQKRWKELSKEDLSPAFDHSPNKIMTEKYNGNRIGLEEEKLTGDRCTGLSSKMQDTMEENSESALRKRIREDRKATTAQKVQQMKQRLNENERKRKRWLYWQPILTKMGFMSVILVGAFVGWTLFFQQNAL
Experimental: Compound activity was determined using GST-tagged PTPN2 protein (Cat #31592, ActiveMotif) (SEQ ID NO: 1) in an in vitro enzymatic reaction. The enzymatic reaction was carried out in assay buffer (50 mM HEPES Na salt pH 7.2-7.4, 2 mM EDTA, 100 mM NaCl, 52 ng/μL BSA, and 6 mM DTT). The compounds were dispensed on a 384 well Diamond Well Plate (Axigen, Cat #P-384-120SQ-C-S) using the Biomek FX liquid handling system at 100× solutions of compounds in DMSO. 2× PTPN2 (final concentration 0.004 ng/μL) was prepared in 1× Assay buffer and 25 μL of mixture per well was added into Reaction plate (Optiplate, black, Perkin Elmer, Cat #6007270). Add 25 μL of 1× buffer to Ctrl- (Substrate w/o PTPN2) wells followed by centrifugation at 100 g for 1 min. Next step the Compounds were added to Reaction plate using Biomek station via following steps: 3 ul of 100× compounds (in DMSO) were mixed with 27 μL of Assay Buffer, then 5 μL of this mixture was added to Reaction plate with 25 μL of PTPN2 Mix. Plates were centrifuged for 1 min at 100 g and incubated for another 10 minutes at room temperature. Finally, 20 μL of 2.5× Substrate (DiFUMP, Invitrogen™ Cat #D6567) mix was added into appropriate wells of Reaction plate to the final concentration of 2 μM, plate was centrifuged at 100 g for 1 min followed by incubation at RT for 60 min, and the Fluorescence Intensity was measured using a Microplate Reader (ClarioStar Plus, excitation 360 nm, emission 450 nm). The % inhibition was then used to calculate the IC50 values. The IC50 values are shown in Table A1, wherein “A” corresponds to IC50<5.0 nm, “B” corresponds to 5.0 nm≤IC50<10.0 nm, “C” corresponds to 10.0 nm≤IC50<50.0 nm, “D” corresponds to 50.0 nm≤IC50<100.0 nm, and “E” corresponds to 100.0 nm≤IC50<500.0 nm, and “F” corresponds to 500.0 nm≤IC50.

[1] = tested on: B16F10 mouse melanoma cells; test: Tumor cells B16F10 cellular growth IFNγ-induced inhibition assay (CellTiter-Glo); format: cell-based; settings: for IC50: B16-F10, 72 h, 3 days incubation; for inhibition at 100 µM: B16-F10, B16F10, 100 μM compound
Experimental: B16F10 mouse melanoma cells (ATCC Cat #CRL-6475) were seeded at a density of 500 cells per well in a 384-well clear bottom plate (Corning Cat #3712, Corning, N.Y.) in 40 μL total volume of DMEM+10% FBS (PanEco Cat #C420, Russia and Sigma Cat #F4135, St. Louis, Mo.). Cells were allowed to adhere overnight at 37° C., 5% CO2. On the following day, 250× solutions of compounds in DMSO (Sigma Cat #D2650) were prepared into […] plate (Diamond Well Plate, Axigen, Cat #P-384-120SQ-C-S) (final concentration of 1×) and DMSO only controls were included. Dilution Plate (Diamond Well Plate (Axigen, Cat #P-384-120SQ-C-S) was prepared by adding 49 μL of culture medium per well: half of the plate with culture medium only, half with culture medium+IFNγ (5 ng/ml). A 1 μL aliquot of 250× compounds ([…] plate) was added to 49 μL of culture medium (Dilution plate), then a 10 μL aliqut of the mixture was transferred to Reaction plate with 40 μL of cells followed by centrifugation at 240 g for 1 min. After 3 days of incubation, 10 μL of CellTiter-Glo (Promega) was added to the cells, plates were centrifuged at 240 g for 1 min, and luminescence signal was measured. For each compound, the percent growth inhibition at every compound dose level was calculated relative to the “DMSO/with IFNγ” control and used to determine the IC50.

[2] = B16F10, + IFNγ, read-out: IC50 + IFNγ
[3] = B16F10, no IFNγ, read-out: IC50 no IFNγ
[4] = + IFNγ, read-out: % Growth Inhibition at 100 μM + IFNγ
[5] = no IFNγ, read-out: % Growth Inhibition at 100 μM no IFNγ

SMILES | IC50 (GST-tagged PTPN2 protein) | IC50 [1, 2] | IC50 [1, 3] | inhibition at 100 µM [1, 4] | inhibition at 100 µM [1, 5]
O=C1CN(c2c(O)cc(NC(=O)NC3CCCCC3)cc2F)S(=O)(=O)N1 [Example 56, 1-cyclohexyl-3-[4-(1,1-dioxido-4-oxo-1,2,5-thiadiazolidin-2-yl)-3-fluoro-5-hydroxyphenyl]urea] | < 5 nM | < 5 µM | ≥ 100 µM | 75 to 100% | 10 to 50%
O=C1CN(c2c(O)cc(NC(=O)NC34CC(CO)(C3)C4)cc2F)S(=O)(=O)N1 [Example 111, 1-[3-fluoro-5-hydroxy-4-(1,1,4-trioxo-1,2,5-thiadiazolidin-2-yl)phenyl]-3-[3-(hydroxymethyl)-1-bicyclo[1.1.1]pentanyl]urea] | < 5 nM | 10 to 50 µM | ≥ 100 µM | 75 to 100% | 10 to 50%
O=C1CN(c2c(O)cc(NC(=O)N[C@@H]3c4ccccc4C[C@@H]3O)cc2F)S(=O)(=O)N1 [Example 108, 1-[3-fluoro-5-hydroxy-4-(1,1,4-trioxo-1,2,5-thiadiazolidin-2-yl)phenyl]-3-[(1R,2S)-2-hydroxyindan-1-yl]urea] | 10 to 50 nM | 10 to 50 µM | ≥ 100 µM | 50 to 75% | 10 to 50%
COc1ccc(CNC(=O)Nc2cc(O)c(N3CC(=O)NS3(=O)=O)c(F)c2)cc1 [Example 63, 1-[4-(1,1-dioxido-4-oxo-1,2,5-thiadiazolidin-2-yl)-3-fluoro-5-hydroxyphenyl]-3-(4-methoxybenzyl)urea] | 10 to 50 nM | 10 to 50 µM | ≥ 100 µM | 75 to 100% | 10 to 50%
O=C1CN(c2c(O)cc(NC(=O)NC3CCN(S(=O)(=O)Cc4ccccc4Cl)CC3)cc2F)S(=O)(=O)N1 [Example 45, 1-{1-[(2-chlorobenzyl)sulfonyl]piperidin-4-yl}-3-[4-(1,1-dioxido-4-oxo-1,2,5-thiadiazolidin-2-yl)-3-fluoro-5-hydroxyphenyl]urea] | 5 to 10 nM | ≥ 100 µM | ≥ 100 µM | 10 to 50% | 10 to 50%
O=C1CN(c2c(O)cc(-c3cccc(NC4CCN(S(=O)(=O)Cc5ccccc5Cl)CC4)c3)cc2F)S(=O)(=O)N1 [Example 11, 5-[3′-({1-[(2-chlorobenzyl)sulfonyl]piperidin-4-yl}amino)-3-fluoro-5-hydroxybiphenyl-4-yl]-1,2,5-thiadiazolidin-3-one 1,1-dioxide] | 100 to 500 nM | 50 to 100 µM | ≥ 100 µM | 50 to 75% | 10 to 50%
Cc1c(S(=O)(=O)Nc2cc(O)c(N3CC(=O)NS3(=O)=O)c(F)c2)cnn1C(F)F [Example 27, 1-(difluoromethyl)-N-[4-(1,1-dioxido-4-oxo-1,2,5-thiadiazolidin-2-yl)-3-fluoro-5-hydroxyphenyl]-5-methyl-1H-pyrazole-4-sulfonamide] | 50 to 100 nM | ≥ 100 µM | ≥ 100 µM | 10 to 50% | 10 to 50%
O=C1CN(c2c(O)cc(-c3ccccc3F)cc2F)S(=O)(=O)N1 [Example 7, 5-(2′,3-difluoro-5-hydroxybiphenyl-4-yl)-1,2,5-thiadiazolidin-3-one 1,1-dioxide] | 100 to 500 nM | 50 to 100 µM | ≥ 100 µM | 50 to 75% | 10 to 50%
O=C1CN(c2c(O)cc(-c3cccc(NC4CCN(S(=O)(=O)Cc5ccccc5)CC4)c3)cc2F)S(=O)(=O)N1 [Example 12, 5-(3′-{[1-(benzylsulfonyl)piperidin-4-yl]amino}-3-fluoro-5-hydroxybiphenyl-4-yl)-1,2,5-thiadiazolidin-3-one 1,1-dioxide] | 100 to 500 nM | ≥ 100 µM | ≥ 100 µM | 10 to 50% | 10 to 50%
CC(C)CCNC(=O)Nc1cc(O)c(N2CC(=O)NS2(=O)=O)c(F)c1 [Example 62, 1-[4-(1,1-dioxido-4-oxo-1,2,5-thiadiazolidin-2-yl)-3-fluoro-5-hydroxyphenyl]-3-(3-methylbutyl)urea] | 5 to 10 nM | < 5 µM | ≥ 100 µM | 75 to 100% | 10 to 50%
O=C1CN(c2c(O)cc(NC(=O)Nc3ccc(F)cc3)cc2F)S(=O)(=O)N1 [Example 53, 1-[4-(1,1-dioxido-4-oxo-1,2,5-thiadiazolidin-2-yl)-3-fluoro-5-hydroxyphenyl]-3-(4-fluorophenyl)urea] | 5 to 10 nM | ≥ 100 µM | ≥ 100 µM | 10 to 50% | 10 to 50%
O=C1CN(c2c(O)cc(NC(=O)Nc3ccc(C(F)(F)F)cc3)cc2F)S(=O)(=O)N1 [Example 41, 1-[4-(1,1-dioxido-4-oxo-1,2,5-thiadiazolidin-2-yl)-3-fluoro-5-hydroxyphenyl]-3-[4-(trifluoromethyl)phenyl]urea] | 5 to 10 nM | 50 to 100 µM | ≥ 100 µM | 50 to 75% | 10 to 50%
O=C1CN(c2c(O)cc(NC(=O)Nc3ccc(Cl)cc3)cc2F)S(=O)(=O)N1 [Example 47, 1-(4-chlorophenyl)-3-[4-(1,1-dioxido-4-oxo-1,2,5-thiadiazolidin-2-yl)-3-fluoro-5-hydroxyphenyl]urea] | < 5 nM | 50 to 100 µM | ≥ 100 µM | 50 to 75% | 10 to 50%
O=C1CN(c2c(O)cc(-c3cc(F)cc(F)c3)cc2F)S(=O)(=O)N1 [Example 4, 5-(3,3′,5′-trifluoro-5-hydroxybiphenyl-4-yl)-1,2,5-thiadiazolidin-3-one 1,1-dioxide] | 100 to 500 nM | ≥ 100 µM | ≥ 100 µM | 10 to 50% | 10 to 50%
Cc1ccccc1S(=O)(=O)Nc1cc(O)c(N2CC(=O)NS2(=O)=O)c(F)c1 [Example 23, N-[4-(1,1-dioxido-4-oxo-1,2,5-thiadiazolidin-2-yl)-3-fluoro-5-hydroxyphenyl]-2-methylbenzenesulfonamide] | 50 to 100 nM | 50 to 100 µM | ≥ 100 µM | 50 to 75% | 10 to 50%
COc1ccc(NC(=O)Nc2cc(O)c(N3CC(=O)NS3(=O)=O)c(F)c2)cc1OC [Example 59, 1-(3,4-dimethoxyphenyl)-3-[4-(1,1-dioxido-4-oxo-1,2,5-thiadiazolidin-2-yl)-3-fluoro-5-hydroxyphenyl]urea] | < 5 nM | 10 to 50 µM | ≥ 100 µM | 50 to 75% | 10 to 50%
O=C1CN(c2c(O)cc(-c3ccc(F)cc3)cc2F)S(=O)(=O)N1 [Example 8, 5-(3,4′-difluoro-5-hydroxybiphenyl-4-yl)-1,2,5-thiadiazolidin-3-one 1,1-dioxide] | 100 to 500 nM | ≥ 100 µM | ≥ 100 µM | 10 to 50% | 10 to 50%
Cc1ccc(NC(=O)Nc2cc(O)c(N3CC(=O)NS3(=O)=O)c(F)c2)cc1 [Example 36, 1-[4-(1,1-dioxido-4-oxo-1,2,5-thiadiazolidin-2-yl)-3-fluoro-5-hydroxyphenyl]-3-(4-methylphenyl)urea] | < 5 nM | 50 to 100 µM | ≥ 100 µM | 50 to 75% | 10 to 50%
